Results from patent publication US20200157144A1, “ANTIMICROBIAL PEPTIDOMIMETICS” (priority 2017, published 2020).
≈ marks a conversion by molar mass, not a printed value. Where “and” joins values, the source holds several entries; their conditions need not be identical. Identical values can stand only once.

Experiments:
Test in all cases: microbe, parasite or virus in culture
[1] = tested on: Mupirocin-susceptible MRSA ATCC-BAA-1754 (ST45); format: cell-based, Staphylococcus aureus; conditions: Staphylococcus aureus
Experimental: (§1) The MICs of test compounds were determined using the microdilution method from the Clinical and Laboratory Standards Institute (CLSI) guidelines (Clinical and Laboratory Standards Institute. Methods for dilution antimicrobial susceptibility tests for bacteria that grow aerobically; approved standard—ninth edition. Document M07-A9. Vol. 32 No. 2. Wayne, Pa.: CLSI; 2012). Briefly, bacteria were grown fresh from frozen stock in Mueller Hinton 2 (MH2) agar at 37° C. After an overnight incubation, 5 bacteria colonies were selected to grow in cation-adjusted MH2 broth in a shaking incubator (140 RPM) at 37° C. Cells were grown to an optical density (OD600) of 0.15-0.16 determined using a spectrophotometer (Molecular Devices Spectra Max Plus), which corresponds to ˜1×10^8 CFU/mL. Test compounds were constituted into 4 mM DMSO stock solutions and then subjected to 2-fold serial dilution in a 96-well plate with concentrations ranging from 100 to 0.195 μM in duplicates. […] of microbial culture containing ˜1×10^6 CFU/mL of microbes in the respective broths was introduced into each well containing 50 μL of compound solution. After an overnight incubation at 35° C., (220 RPM), OD600 measurements were conducted using the microplate spectrophotometer. The MIC was defined as the lowest antibiotic or compound concentration (μM) required to inhibit bacteria growth.
(§2) The 11th well was used as the growth control well (medium with bacterial inoculums, no antibacterial) while the 12th well was the sterility control well (medium only).

[2] = tested on: Mupirocin-susceptible MRSA ATCC-BAA-2762 (EMRSA15, ST22); format: cell-based, Staphylococcus aureus; conditions: Staphylococcus aureus
Experimental: as §1, §2

[3] = tested on: Mupirocin-susceptible MRSA ATCC-BAA-1681 (USA100); format: cell-based, Staphylococcus aureus; conditions: Staphylococcus aureus
Experimental: as §1, §2

[4] = tested on: Mupirocin-resistant MRSA ATCC-BAA-1750 (USA200); format: cell-based, Staphylococcus aureus; conditions: Staphylococcus aureus
Experimental: as §1, §2

[5] = tested on: Mupirocin-susceptible MRSA ATCC-33592 (ST239); format: cell-based, Staphylococcus aureus; conditions: Staphylococcus aureus
Experimental: as §1, §2

[6] = tested on: Mupirocin-susceptible MRSA ATCC-BAA-1756 (USA300); format: cell-based, Staphylococcus aureus; conditions: Staphylococcus aureus
Experimental: as §1, §2

[7] = tested on: Mupirocin-resistant MRSA ATCC-BAA-1556; format: cell-based, Staphylococcus aureus; conditions: Staphylococcus aureus
Experimental: as §1, §2

[8] = tested on: Mupirocin-resistant MRSA ATCC-BAA-1708; format: cell-based, Staphylococcus aureus; conditions: Staphylococcus aureus
Experimental: as §1, §2

[9] = tested on: Mupirocin-susceptible MRSA ATCC-700699 (VISA); format: cell-based, Staphylococcus aureus; conditions: Staphylococcus aureus
Experimental: as §1, §2

[10] = tested on: Mupirocin-susceptible MRSA ATCC-BAA-1707 (USA400); format: cell-based, Staphylococcus aureus; conditions: Staphylococcus aureus
Experimental: as §1, §2

[11] = tested on: Propionibacterium acnes ATCC 29399; format: cell-based; conditions: Cutibacterium acnes, ATCC29399
Experimental: (§3) The antibacterial potency of Compound 34 was measured using the in vitro broth microdilution assay under assay conditions described by the Clinical and Laboratory Standards Institute. […] The test substance was dissolved in 100% DMSO (unless stated below), suspended completely by sonication or vortexing, diluted by 2-fold serial titrations in the same vehicle, for a total of 10 test concentrations (final concentrations: 100, 50, 25, 12.5, 6.25, 3.125, 1.56, 0.78, 0.39, 0.2 μM). A 4 μL aliquot of each dilution was added to 196 μL of broth medium seeded with the organism suspension in wells of a 96 well plate (bacterial count: 2-8×10^5 colony forming units/mL final). The final volume was 200 μL in each well and the final DMSO concentration was 2 percent. The incubation time is either 1 or 2 days at 36° C. All strains tested underwent aerobic respiration, except for ATCC BAA-1805 and ATCC 29399. Following incubation, the test plates were visually examined and wells were scored for growth or complete growth inhibition to define the minimum inhibitory concentration. Each test substance was evaluated in duplicate and the results below are the duplicate test values. Vehicle-control and an active reference agent were used as blank and positive controls, respectively.

[12] = tested on: Staphylococcus epidermidis ATCC 12228; format: cell-based; conditions: Staphylococcus epidermidis, ATCC12228
Experimental: as §3, with “values.” for “values. Vehicle-control and an active reference agent were used as blank and positive controls, respectively.”

[13] = tested on: Staphylococcus aureus ATCC 19636; format: cell-based; conditions: Staphylococcus aureus, ATCC19636
Experimental: as §3, with “values.” for “values. Vehicle-control and an active reference agent were used as blank and positive controls, respectively.”

[14] = tested on: Staphylococcus aureus ATCC BAA-1717; format: cell-based; conditions: Staphylococcus aureus, ATCCBAA1717
Experimental: as §3, with “values.” for “values. Vehicle-control and an active reference agent were used as blank and positive controls, respectively.”

[15] = tested on: Enterococcus faecium ATCC BAA-2320; format: cell-based; conditions: Enterococcus faecium, ATCCBAA2320
Experimental: as §3

[16] = tested on: Enterococcus faecalis ATCC 51299; format: cell-based; conditions: Enterococcus faecalis, ATCC51299
Experimental: as §3

Row | Compound | MIC [1] | MIC [2] | MIC [3] | MIC [4] | MIC [5] | MIC [6] | MIC [7] | MIC [8] | MIC [9] | MIC [10] | MIC [11] | MIC [12] | MIC [13] | MIC [14] | MIC [15] | MIC [16]
1 | CN[C@H](CC(C)C)C(=O)N[C@H]1C(=O)N[C@@H](CC(N)=O)C(=O)N[C@H]2C(=O)N[C@H]3C(=O)N[C@H](C(=O)N[C@H](C(=O)O)c4cc(O)cc(O)c4-c4cc3ccc4O)[C@H](O)c3ccc(c(Cl)c3)Oc3cc2cc(c3O[C@@H]2O[C@H](CO)[C@@H](O)[C@H](O)[C@H]2O[C@H]2C[C@](C)(N)[C@H](O)[C@H](C)O2)Oc2ccc(cc2Cl)[C@H]1O [Vancomycin] | 0.78 µM (≈ 1.13 µg/mL) | 0.78 µM (≈ 1.13 µg/mL) | 1.56 µM (≈ 2.26 µg/mL) | 0.78 µM (≈ 1.13 µg/mL) | 0.78 µM (≈ 1.13 µg/mL) | 0.78 µM (≈ 1.13 µg/mL) | 0.78 µM (≈ 1.13 µg/mL) | 0.78 µM (≈ 1.13 µg/mL) | 6.25 µM (≈ 9.06 µg/mL) | 0.78 µM (≈ 1.13 µg/mL) | 0.5 µg/mL and 0.35 µM | 1 µg/mL (≈ 0.69 µM) | 1 µg/mL (≈ 0.69 µM) | 1 µg/mL (≈ 0.69 µM) |  | 
2 | CN(C)c1cc(NC(=O)CNC(C)(C)C)c(O)c2c1C[C@H]1C[C@H]3[C@H](N(C)C)C(O)=C(C(N)=O)C(=O)[C@@]3(O)C(O)=C1C2=O [Tigecycline] |  |  |  |  |  |  |  |  |  |  |  |  |  |  | 0.063 µg/mL and 0.11 µM | 0.063 µg/mL and 0.11 µM
